This note sets out measurements from patent publication US20220323406A1, “METHODS AND COMPOSITIONS FOR DIFFERENTIATING STEM CELLS” (Massachusetts Institute of Technology, priority 2019, published 2022).

SMILES strings stand for the structures.

The subject of assay [1] is ENR+CD organoids (ISC to Paneth cell differentiation). Kind of assay: Primary screen: basal (non-stimulated) lysozyme secretion LYZ.NS, 2.5-D 384-well ENR+CD organoid differentiation. Format: cell-based, mouse. Particulars: primary screen; for Z.LYZ.NS: standard z score. An excerpt:
(§1) High-throughput screening.

Assay [2] has the same test system. Nature of the assay: Primary screen: CCh-stimulated lysozyme secretion LYZ.S, 2.5-D 384-well ENR+CD organoid differentiation. Format: cell-based, mouse. Particulars: primary screen.
Source text: as §1

The next assay has as its system ENR+CD organoids. Nature of the assay: Primary screen: ATP (CellTiter-Glo 3D, CTG) cell number/viability, 2.5-D 384-well ENR+CD organoids.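 Further: compounds given at plating and again on day 3 over a 6-day differentiation from ENR+CV stem-cell-enriched precursors, ATP measured on day 6, plate median as control.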 Particulars: primary screen. On the technique in general: ATP-based viability assays read luminescence as a measure of living cells.

Take `Cc1nc(C(=O)NCC(=O)O)c(O)c2ccc(Oc3ccccc3)cc12` [FG-4592]: the Dose.FC.LYZ.NS turned out to be 0.077 log2 fold change in assay [1] (dose 0.08 uM), 0.170 log2 fold change in assay [1] (dose 0.40 uM), 0.094 log2 fold change in assay [1] (dose 2.00 uM) and 0.030 log2 fold change in assay [1] (dose 10.00 uM). The Z.LYZ.NS in assay [1] (dose 0.08 uM) amounted to 0.673; in assay [1] (dose 0.40 uM), 1.484; in assay [1] (dose 2.00 uM), 0.822; in assay [1] (dose 10.00 uM), 0.265. Moreover, the Dose.FC.LYZ.S is 0.083 log2 fold change in assay [2] (dose 0.08 uM), 0.234 log2 fold change in assay [2] (dose 0.40 uM), 0.152 log2 fold change in assay [2] (dose 2.00 uM) and 0.071 log2 fold change in assay [2] (dose 10.00 uM). The Dose.FC.CTG with ENR+CD organoids (dose 0.08 uM) is on record as 0.327 log2 fold change; in the assay on ENR+CD organoids (dose 0.40 uM) it was 0.284 log2 fold change; in the assay with ENR+CD organoids (dose 2.00 uM), 0.290 log2 fold change; in the assay with ENR+CD organoids (dose 10.00 uM), 0.238 log2 fold change.
As to `COc1ccc2c(c1)c(CC(=O)N1CCOCC1)c(C)n2C(=O)c1ccc(Cl)cc1` [BML-190], the Dose.FC.LYZ.NS is 0.072 log2 fold change in assay [1] (dose 0.08 uM), −0.017 log2 fold change in assay [1] (dose 0.40 uM), 0.116 log2 fold change in assay [1] (dose 2.00 uM) and 0.209 log2 fold change in assay [1] (dose 10.00 uM). Besides, the “Z.LYZ.NS (standard z score)” value in assay [1] (dose 0.08 uM) is 0.623; in assay [1] (dose 0.40 uM), −0.152; in assay [1] (dose 2.00 uM), 1.011; in assay [1] (dose 10.00 uM), 1.823. In addition, the Dose.FC.LYZ.S is 0.060 log2 fold change in assay [2] (dose 0.08 uM), −0.037 log2 fold change in assay [2] (dose 0.40 uM), 0.017 log2 fold change in assay [2] (dose 2.00 uM) and 0.067 log2 fold change in assay [2] (dose 10.00 uM). Besides, the Dose.FC.CTG in the assay with ENR+CD organoids (dose 0.08 uM) was −0.003 log2 fold change; in the assay on ENR+CD organoids (dose 0.40 uM) it was −0.099 log2 fold change; in the assay with ENR+CD organoids (dose 2.00 uM), −0.106 log2 fold change; with ENR+CD organoids (dose 10.00 uM), −0.106 log2 fold change. Besides, the “Z.CTG (standard z score)” value is −0.007 with ENR+CD organoids (dose 0.08 uM), −0.237 with ENR+CD organoids (dose 0.40 uM), −0.254 in the assay on ENR+CD organoids (dose 2.00 uM) and −0.254 in the assay on ENR+CD organoids (dose 10.00 uM).
On to `Nc1cccc2c1CN(C1CCC(=O)NC1=O)C2=O` (centres unmarked) [Lenalidomide (CC-5013)], for which the “Dose.FC.LYZ.NS (log2 fold change)” value is reported as 0.147 in assay [1] (dose 0.08 uM), 0.099 in assay [1] (dose 0.40 uM), 0.071 in assay [1] (dose 2.00 uM) and −0.041 in assay [1] (dose 10.00 uM). Besides, the “Z.LYZ.NS (standard z score)” value in assay [1] (dose 0.08 uM) was 1.283; in assay [1] (dose 0.40 uM), 0.863; in assay [1] (dose 2.00 uM) it was 0.615; in assay [1] (dose 10.00 uM) it was −0.360. Further, the “Dose.FC.LYZ.S (log2 fold change)” value in assay [2] (dose 0.08 uM) is reported as 0.099; in assay [2] (dose 0.40 uM), 0.176; in assay [2] (dose 2.00 uM) it was 0.025; in assay [2] (dose 10.00 uM), −0.045. Besides, the “Dose.FC.CTG (log2 fold change)” value with ENR+CD organoids (dose 0.08 uM) was 0.046; in the assay on ENR+CD organoids (dose 0.40 uM) it was −0.016; in the assay on ENR+CD organoids (dose 2.00 uM) it was −0.250; in the assay with ENR+CD organoids (dose 10.00 uM) it was −0.316. In addition, the “Z.CTG (standard z score)” value is reported as 0.110 in the assay with ENR+CD organoids (dose 0.08 uM), −0.037 with ENR+CD organoids (dose 0.40 uM), −0.596 in the assay with ENR+CD organoids (dose 2.00 uM) and −0.754 in the assay on ENR+CD organoids (dose 10.00 uM).
